Test results as given in patent US20220153766A1, “CONDENSED TRICYCLIC COMPOUND USED AS KINASE INHIBITOR” (Hangzhou Innogate Pharma Co., Ltd., priority 2019, published 2022).

Tests used:
[1] = target: Ba/F3_EGFR del19/T790M/C797S cells (Homo sapiens, UniProt P00533, T790M/C797S, cells depend on it, form not given); test: Ba/F3_EGFR (del19-T790M-C797S) cell proliferation inhibition, CTG, method 2; assay type: cell-based; conditions: 2000 cells/well, 72 h, read-out: Ba/F3_EGFR (del19-T790M-C797S) cell proliferation inhibition (IC50 value) Method 2
Sequence of Ba/F3_EGFR del19/T790M/C797S cells (P00533 with tags, fused parts or gaps DEL746-750/T790M/C797S, form open): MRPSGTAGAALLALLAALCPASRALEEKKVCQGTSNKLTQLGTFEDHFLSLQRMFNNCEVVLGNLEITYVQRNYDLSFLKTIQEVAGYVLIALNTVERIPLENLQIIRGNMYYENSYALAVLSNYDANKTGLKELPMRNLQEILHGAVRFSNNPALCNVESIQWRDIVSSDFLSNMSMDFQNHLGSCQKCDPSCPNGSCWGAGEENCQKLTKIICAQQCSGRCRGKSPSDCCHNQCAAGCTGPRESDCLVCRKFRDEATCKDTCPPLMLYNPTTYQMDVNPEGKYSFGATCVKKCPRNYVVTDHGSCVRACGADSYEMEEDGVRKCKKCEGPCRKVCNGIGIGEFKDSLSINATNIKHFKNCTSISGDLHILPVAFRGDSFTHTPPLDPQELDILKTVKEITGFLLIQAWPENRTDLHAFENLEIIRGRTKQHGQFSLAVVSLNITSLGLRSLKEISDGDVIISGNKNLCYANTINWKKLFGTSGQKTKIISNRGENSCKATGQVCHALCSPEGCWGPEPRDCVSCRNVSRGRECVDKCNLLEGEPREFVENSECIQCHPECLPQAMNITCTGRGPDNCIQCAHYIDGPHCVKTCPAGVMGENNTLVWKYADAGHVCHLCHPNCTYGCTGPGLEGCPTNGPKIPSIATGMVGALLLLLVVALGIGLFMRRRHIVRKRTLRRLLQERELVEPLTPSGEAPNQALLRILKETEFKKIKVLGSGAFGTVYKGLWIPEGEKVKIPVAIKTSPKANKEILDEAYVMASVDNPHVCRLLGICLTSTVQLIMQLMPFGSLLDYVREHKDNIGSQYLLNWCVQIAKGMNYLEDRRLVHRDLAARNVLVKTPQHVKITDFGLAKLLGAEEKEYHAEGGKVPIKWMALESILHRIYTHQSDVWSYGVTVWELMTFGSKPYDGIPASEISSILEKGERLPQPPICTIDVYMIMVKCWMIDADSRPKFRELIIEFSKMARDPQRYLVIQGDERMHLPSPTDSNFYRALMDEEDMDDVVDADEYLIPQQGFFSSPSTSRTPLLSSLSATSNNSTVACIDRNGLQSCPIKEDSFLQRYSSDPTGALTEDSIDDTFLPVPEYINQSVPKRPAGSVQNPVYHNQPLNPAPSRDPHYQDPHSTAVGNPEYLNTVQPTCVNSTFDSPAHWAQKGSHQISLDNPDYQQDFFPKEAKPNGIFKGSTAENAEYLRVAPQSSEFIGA
Description: Take a small amount of cells and count them with ViCell. 2) Adjust the cell density, inoculate the cells in a 384-well plate at 2000/well, and incubate in a 37° C., 5% CO2 incubator for 4 hours. 3) Set up the program of Tecan HP D300, add the compound to the well plate. The maximum initial concentration of the compound is 1-4 μM, 3 folds dilution, 9 concentrations, and the DMSO content in each well is unified to 0.2%.
CTG method detection: 1) Take out the CTG reagent and cell plate and equilibrate at room temperature for 30 min, add 25 μL CTG to each well, shake at medium speed for 2 min, centrifuge at 1000 rpm for 1 minutes, and stand still at room temperature for 10 minutes. 2) Envision instrument reads the chemiluminescence signal value.
Data analysis: IC50 results are analyzed by IDBS's XL-fit 5.0 software.

EGFR (T790M/L858R/C797S) = EGFR (T790M/L858R/C797S) (Homo sapiens, UniProt P00533, C797S/L858R/T790M); test: EGFR (T790M/L858R/C797S) kinase activity inhibition, Caliper mobility shift assay; assay type: biochemical; conditions: kinase 2.5 nM, ATP 40 μM
Sequence of EGFR (T790M/L858R/C797S) (P00533 25-1210 T790M/C797S/L858R): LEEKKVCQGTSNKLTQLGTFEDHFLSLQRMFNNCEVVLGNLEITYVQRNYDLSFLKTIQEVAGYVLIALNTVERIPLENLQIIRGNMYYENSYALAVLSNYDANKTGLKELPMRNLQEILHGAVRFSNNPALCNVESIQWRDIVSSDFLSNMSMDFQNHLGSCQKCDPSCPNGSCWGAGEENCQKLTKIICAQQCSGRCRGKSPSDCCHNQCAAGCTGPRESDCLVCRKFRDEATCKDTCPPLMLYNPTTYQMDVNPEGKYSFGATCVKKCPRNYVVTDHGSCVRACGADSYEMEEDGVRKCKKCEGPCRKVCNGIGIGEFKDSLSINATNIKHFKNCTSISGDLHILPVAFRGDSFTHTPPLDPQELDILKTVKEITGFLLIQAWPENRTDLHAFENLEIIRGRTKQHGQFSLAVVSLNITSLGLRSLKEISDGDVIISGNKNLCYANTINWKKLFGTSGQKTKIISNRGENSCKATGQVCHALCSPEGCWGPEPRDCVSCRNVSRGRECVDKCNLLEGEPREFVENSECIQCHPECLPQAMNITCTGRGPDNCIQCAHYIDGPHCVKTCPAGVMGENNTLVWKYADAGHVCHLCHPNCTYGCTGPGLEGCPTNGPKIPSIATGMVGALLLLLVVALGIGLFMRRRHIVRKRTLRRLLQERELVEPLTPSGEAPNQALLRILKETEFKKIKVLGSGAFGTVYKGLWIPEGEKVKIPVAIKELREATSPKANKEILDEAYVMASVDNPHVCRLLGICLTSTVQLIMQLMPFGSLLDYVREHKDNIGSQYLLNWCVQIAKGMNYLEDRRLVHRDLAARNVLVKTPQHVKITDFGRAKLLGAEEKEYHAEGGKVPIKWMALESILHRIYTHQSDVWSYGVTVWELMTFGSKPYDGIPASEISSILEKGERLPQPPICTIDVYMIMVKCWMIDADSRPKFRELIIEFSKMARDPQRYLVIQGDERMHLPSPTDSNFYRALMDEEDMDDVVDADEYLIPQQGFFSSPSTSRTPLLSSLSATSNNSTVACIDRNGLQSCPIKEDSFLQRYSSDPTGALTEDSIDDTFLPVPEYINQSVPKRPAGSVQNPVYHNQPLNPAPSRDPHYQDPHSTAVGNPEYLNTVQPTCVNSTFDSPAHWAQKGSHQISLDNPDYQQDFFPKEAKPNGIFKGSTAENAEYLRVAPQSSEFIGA
Description: The basic method is the same as ALK activity test method 2. The test concentration of the compound starts at 2 μM, and is diluted 5 folds into 6 (7 for individual compounds) concentration points. […] Add 30 μL of stop solution containing EDTA to stop the kinase reaction. Use Caliper EZ Reader to read the conversion rate. Inhibition rate %=(Average positive control conversion rate %−Sample conversion rate %/(Average positive control conversion rate %−Average negative control conversion rate %). Among them: negative control wells represent the conversion rate readings without enzyme activity; positive control wells represent the conversion rate readings of wells without compound inhibition. Take the log value of the concentration as the X-axis, and the percentage inhibition rate on the Y-axis. Log (inhibitor) vs. response—Variable slope of analysis software GraphPad Prism 5 was used to fit the curve to obtain the IC50 value of each compound on the enzyme activity. Calculation formula: Y=Bottom+(Top−Bottom)/(1+10^((Log IC50−X)*HillSlope)).

[2] = Pharmacokinetic study in rats after intragastrical administration; assay type: in vivo; conditions: male, rat, plasma, po, SD rats, 3 mg/kg
MAP4K1 (HPK1) = MAP4K1 (HPK1) (Homo sapiens, UniProt Q92918); test: MAP4K1 (HPK1) kinase activity inhibition, Caliper mobility shift assay; assay type: biochemical; conditions: kinase 1.25 nM, ATP 10.1 μM
Sequence of MAP4K1 (HPK1) (Q92918 whole entry): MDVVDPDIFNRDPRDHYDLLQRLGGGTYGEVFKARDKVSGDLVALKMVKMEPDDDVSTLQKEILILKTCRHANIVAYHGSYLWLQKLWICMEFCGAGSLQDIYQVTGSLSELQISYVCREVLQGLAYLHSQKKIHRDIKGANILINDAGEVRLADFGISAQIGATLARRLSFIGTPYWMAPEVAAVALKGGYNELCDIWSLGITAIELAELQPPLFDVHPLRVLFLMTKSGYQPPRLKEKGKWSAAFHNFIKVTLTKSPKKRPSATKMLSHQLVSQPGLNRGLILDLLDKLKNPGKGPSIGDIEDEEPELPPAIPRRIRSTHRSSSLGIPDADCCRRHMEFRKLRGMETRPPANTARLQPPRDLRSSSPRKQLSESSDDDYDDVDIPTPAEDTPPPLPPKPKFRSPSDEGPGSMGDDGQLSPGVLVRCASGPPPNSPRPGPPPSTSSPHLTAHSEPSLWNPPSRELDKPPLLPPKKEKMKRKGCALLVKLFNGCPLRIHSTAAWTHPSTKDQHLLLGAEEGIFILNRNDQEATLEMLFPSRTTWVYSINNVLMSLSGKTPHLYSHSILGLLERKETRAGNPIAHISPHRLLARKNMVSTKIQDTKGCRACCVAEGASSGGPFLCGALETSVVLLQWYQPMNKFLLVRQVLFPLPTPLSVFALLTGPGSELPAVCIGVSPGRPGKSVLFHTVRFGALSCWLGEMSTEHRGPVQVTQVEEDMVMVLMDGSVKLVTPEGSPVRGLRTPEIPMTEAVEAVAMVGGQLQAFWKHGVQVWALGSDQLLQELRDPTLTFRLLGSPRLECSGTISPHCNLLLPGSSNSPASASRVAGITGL
Procedure, shortened: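 HPK1 kinase at 1.25 nM final preincubated 10 min at room temperature with compound (5 points, 5-fold dilutions from 500 nM), then reacted 120 min with 10.1 μM ATP and 3 μM substrate peptide No. 25. EDTA stop; mobility-shift conversion read, IC50 from variable-slope four-parameter fit of % inhibition.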

## Cc1cc(Nc2ncc(Cl)c(Nc3ccccc3P(C)(C)=O)n2)cc2c1N1CCN(C3CCN(C)CC3)C[C@@H]1CO2 [Compound 27R]
[1]
  GI50: < 20 nM
EGFR (T790M/L858R/C797S)
  IC50: < 3 nM
[2]
  Cmax: 0.196 µg/mL
  Tmax: 5.33 h
  half-life: 5.17 h
[2]; read-out: AUC0-24 h
  AUC(0-t): 2.75 µg·h/mL
MAP4K1 (HPK1)
  IC50: ≤ 1 nM
